In ChEMBL document CHEMBL5465560, “Selectivity Literature for EUbOPEN Chemogenomic Library” (2024):
Values belong to the compound of their own block, whether it stands above or below them.

Experiments:
[1] = biological target: TGF-beta receptor type-2 (Homo sapiens) (UniProt P37173); test: Selectivity interaction (LanthaScreen Eu Kinase Binding Assay) EUB0001632a TGFBR2; conditions: at 10 µM
[2] = biological target: Serine/threonine-protein kinase VRK2 (Homo sapiens) (UniProt Q86Y07); test: Selectivity interaction (LanthaScreen Eu Kinase Binding Assay) EUB0001632a VRK2; conditions: at 10 µM
Chain of Serine/threonine-protein kinase VRK2 (Homo sapiens) (Q86Y07 whole entry): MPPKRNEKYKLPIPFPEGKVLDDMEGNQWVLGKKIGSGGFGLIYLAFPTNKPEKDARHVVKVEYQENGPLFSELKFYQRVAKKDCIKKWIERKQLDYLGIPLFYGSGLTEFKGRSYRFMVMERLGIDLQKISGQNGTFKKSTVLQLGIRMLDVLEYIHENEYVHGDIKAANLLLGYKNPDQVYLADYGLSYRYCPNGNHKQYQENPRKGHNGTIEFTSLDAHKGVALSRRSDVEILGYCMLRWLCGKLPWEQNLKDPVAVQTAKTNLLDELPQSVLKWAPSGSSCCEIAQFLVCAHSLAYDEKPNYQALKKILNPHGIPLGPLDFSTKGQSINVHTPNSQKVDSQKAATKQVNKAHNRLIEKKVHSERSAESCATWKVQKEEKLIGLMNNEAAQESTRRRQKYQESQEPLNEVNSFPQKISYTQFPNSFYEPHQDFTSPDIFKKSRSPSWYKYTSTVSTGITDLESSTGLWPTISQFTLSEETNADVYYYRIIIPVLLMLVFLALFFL

[3] = biological target: Bromodomain-containing protein 3 (Homo sapiens) (UniProt Q15059); test: Selectivity interaction (Human bromodomain panel (DSF assay)) EUB0000233b BRD3
Chain of Bromodomain-containing protein 3 (Homo sapiens) (Q15059 2-726 limits assumed): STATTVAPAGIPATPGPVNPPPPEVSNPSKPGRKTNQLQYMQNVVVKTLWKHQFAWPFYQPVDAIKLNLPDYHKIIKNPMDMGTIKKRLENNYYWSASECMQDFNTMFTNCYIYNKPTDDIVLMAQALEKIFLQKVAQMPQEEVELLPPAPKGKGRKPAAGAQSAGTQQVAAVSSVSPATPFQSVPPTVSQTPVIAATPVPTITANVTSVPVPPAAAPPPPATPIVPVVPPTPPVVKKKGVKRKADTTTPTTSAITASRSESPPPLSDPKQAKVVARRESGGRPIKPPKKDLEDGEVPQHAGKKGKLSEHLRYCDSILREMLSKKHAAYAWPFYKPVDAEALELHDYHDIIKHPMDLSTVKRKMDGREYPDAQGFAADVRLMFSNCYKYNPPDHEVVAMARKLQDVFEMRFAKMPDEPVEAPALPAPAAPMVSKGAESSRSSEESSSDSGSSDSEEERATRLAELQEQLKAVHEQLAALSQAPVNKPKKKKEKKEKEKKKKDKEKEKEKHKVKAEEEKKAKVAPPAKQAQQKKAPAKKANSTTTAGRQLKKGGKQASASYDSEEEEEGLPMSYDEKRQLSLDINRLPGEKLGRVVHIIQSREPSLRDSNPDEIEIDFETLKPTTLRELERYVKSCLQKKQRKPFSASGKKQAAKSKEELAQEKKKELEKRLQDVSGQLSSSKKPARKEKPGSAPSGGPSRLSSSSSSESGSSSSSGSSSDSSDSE

[4] = biological target: Calcium/calmodulin-dependent protein kinase kinase 2 (Homo sapiens) (UniProt Q96RR4); test: Selectivity interaction (Kinase panel (literature)) EUB0001199aCl CAMKK2; conditions: at 1 µM
Chain of Calcium/calmodulin-dependent protein kinase kinase 2 (Homo sapiens) (Q96RR4 2-588 limits assumed): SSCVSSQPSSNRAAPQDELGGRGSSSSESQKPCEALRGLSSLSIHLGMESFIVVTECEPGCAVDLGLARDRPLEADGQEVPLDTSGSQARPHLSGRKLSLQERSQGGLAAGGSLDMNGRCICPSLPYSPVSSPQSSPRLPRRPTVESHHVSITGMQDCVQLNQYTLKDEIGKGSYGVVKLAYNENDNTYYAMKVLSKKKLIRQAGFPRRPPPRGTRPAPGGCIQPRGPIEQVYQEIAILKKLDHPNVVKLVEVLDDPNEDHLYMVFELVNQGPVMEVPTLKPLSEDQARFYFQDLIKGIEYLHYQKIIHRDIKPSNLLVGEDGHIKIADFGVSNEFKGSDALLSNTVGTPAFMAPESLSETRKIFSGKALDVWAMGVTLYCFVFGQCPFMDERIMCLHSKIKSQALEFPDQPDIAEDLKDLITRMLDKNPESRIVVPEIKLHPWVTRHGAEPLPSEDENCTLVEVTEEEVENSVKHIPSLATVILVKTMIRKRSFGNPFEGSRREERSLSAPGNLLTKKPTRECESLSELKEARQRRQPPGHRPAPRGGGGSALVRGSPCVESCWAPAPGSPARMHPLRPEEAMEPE

[5] = biological target: T1, Serine/threonine-protein kinase Sgk3 (Homo sapiens) (UniProt Q96BR1); test: Selectivity interaction (Kinase panel (Invitrogen)) EUB0000639a SGK3; conditions: at 200 nM
T1 sequence (whole entry): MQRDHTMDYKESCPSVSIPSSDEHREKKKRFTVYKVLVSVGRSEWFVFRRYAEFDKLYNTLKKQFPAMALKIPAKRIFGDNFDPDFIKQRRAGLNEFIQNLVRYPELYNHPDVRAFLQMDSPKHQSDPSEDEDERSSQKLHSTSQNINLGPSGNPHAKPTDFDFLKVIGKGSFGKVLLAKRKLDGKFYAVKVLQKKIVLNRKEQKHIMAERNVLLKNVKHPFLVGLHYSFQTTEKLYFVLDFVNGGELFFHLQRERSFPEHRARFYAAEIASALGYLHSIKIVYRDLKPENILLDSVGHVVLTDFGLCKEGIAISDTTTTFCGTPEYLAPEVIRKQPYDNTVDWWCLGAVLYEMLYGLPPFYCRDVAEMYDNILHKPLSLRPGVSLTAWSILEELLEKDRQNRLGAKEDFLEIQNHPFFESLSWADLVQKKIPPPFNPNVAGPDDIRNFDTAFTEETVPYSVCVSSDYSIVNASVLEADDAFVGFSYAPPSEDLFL

[6] = biological target: Serine/threonine-protein kinase WNK2 (Homo sapiens) (UniProt Q9Y3S1); test: Selectivity interaction (Kinase panel (Invitrogen)) EUB0000639a WNK2; conditions: at 200 nM
[7] = biological target: Mitogen-activated protein kinase 1 (Homo sapiens, UniProt P28482); test: Selectivity interaction (ProQinase) EUB0000171b MAPK1
Chain of Mitogen-activated protein kinase 1 (P28482 whole entry): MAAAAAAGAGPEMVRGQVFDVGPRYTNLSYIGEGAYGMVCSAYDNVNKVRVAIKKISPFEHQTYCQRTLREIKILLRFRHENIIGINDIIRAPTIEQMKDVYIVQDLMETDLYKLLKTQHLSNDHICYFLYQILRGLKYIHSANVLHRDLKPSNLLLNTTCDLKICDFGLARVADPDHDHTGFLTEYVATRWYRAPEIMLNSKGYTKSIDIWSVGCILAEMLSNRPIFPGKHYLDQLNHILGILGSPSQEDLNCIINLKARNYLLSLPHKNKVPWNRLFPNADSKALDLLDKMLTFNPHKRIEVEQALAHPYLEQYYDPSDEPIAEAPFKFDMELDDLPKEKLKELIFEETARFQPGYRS

Misshapen-like kinase 1 = Misshapen-like kinase 1 (Homo sapiens, UniProt Q8N4C8); test: Selectivity interaction (Ambit KINOMEscan and KiNATiv profiling in Jurkat cells) EUB0000090b MINK1; type: cell-based; conditions: at 1 µM
Chain of Misshapen-like kinase 1 (Q8N4C8 whole entry, looked up): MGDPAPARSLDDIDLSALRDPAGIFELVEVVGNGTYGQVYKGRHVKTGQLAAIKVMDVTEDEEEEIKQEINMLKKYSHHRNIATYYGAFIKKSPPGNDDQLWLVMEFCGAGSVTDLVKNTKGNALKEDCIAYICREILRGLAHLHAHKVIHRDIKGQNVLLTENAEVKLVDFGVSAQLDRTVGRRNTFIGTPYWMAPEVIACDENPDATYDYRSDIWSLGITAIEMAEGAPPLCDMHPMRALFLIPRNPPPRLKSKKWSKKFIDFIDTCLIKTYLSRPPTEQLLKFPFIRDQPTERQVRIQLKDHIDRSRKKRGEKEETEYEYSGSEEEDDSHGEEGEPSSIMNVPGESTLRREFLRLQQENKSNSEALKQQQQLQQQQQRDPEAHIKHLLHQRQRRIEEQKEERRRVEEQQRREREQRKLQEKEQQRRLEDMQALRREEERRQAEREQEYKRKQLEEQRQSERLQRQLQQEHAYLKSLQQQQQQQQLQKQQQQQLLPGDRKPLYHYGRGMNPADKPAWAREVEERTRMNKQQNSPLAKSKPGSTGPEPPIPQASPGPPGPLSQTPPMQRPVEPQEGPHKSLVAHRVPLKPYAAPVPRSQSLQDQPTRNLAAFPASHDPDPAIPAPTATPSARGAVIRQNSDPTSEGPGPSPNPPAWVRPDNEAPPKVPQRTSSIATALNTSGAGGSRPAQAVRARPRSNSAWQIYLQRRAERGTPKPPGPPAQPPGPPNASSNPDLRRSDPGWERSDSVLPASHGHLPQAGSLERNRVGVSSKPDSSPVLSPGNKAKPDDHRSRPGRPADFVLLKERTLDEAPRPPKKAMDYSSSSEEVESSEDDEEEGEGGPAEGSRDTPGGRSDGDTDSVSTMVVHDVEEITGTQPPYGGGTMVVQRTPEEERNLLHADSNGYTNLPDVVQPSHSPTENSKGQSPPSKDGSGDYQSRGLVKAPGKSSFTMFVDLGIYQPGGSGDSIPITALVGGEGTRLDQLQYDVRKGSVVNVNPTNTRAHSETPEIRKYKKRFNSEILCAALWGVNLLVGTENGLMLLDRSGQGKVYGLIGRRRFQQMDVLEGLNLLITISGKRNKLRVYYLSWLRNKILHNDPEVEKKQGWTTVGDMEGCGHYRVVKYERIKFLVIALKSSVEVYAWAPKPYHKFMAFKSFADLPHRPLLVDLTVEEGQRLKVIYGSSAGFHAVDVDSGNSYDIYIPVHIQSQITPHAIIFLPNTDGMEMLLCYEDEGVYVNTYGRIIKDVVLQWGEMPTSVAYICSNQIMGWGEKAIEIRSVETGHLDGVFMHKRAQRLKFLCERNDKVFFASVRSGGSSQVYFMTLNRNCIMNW

[8] = biological target: Dual specificity testis-specific protein kinase 1 (Homo sapiens) (UniProt Q15569); test: Selectivity interaction (Ambit KINOMEscan and KiNATiv profiling in Jurkat cells) EUB0000090b TESK1; type: cell-based; conditions: at 1 µM
[9] = biological target: T2, Serine/threonine-protein kinase MAK (Homo sapiens) (UniProt P20794); test: Selectivity interaction (KinomeScan (DiscoverX)) EUB0000092b MAK; conditions: at 10 µM
T2 sequence (whole entry): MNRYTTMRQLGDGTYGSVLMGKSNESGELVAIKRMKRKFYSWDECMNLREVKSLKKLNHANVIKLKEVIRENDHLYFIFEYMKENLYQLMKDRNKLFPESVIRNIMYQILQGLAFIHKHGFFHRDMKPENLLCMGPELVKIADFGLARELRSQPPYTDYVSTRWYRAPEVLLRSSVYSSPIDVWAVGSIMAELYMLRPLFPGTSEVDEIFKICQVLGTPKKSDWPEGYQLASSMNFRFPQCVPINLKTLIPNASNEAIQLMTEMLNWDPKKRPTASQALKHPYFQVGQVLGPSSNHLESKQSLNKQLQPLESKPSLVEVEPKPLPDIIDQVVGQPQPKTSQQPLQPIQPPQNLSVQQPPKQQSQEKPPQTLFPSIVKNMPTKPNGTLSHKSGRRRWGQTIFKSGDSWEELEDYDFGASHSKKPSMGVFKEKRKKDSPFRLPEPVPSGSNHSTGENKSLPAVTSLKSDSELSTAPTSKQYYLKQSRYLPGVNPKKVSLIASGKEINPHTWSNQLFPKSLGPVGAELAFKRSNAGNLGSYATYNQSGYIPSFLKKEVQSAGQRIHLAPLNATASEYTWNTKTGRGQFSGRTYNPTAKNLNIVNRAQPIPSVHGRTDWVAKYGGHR

[10] = biological target: Cyclin-dependent kinase 15 (Homo sapiens) (UniProt Q96Q40); conditions: at 10 µM
Chain of Cyclin-dependent kinase 15 (Homo sapiens) (Q96Q40 whole entry): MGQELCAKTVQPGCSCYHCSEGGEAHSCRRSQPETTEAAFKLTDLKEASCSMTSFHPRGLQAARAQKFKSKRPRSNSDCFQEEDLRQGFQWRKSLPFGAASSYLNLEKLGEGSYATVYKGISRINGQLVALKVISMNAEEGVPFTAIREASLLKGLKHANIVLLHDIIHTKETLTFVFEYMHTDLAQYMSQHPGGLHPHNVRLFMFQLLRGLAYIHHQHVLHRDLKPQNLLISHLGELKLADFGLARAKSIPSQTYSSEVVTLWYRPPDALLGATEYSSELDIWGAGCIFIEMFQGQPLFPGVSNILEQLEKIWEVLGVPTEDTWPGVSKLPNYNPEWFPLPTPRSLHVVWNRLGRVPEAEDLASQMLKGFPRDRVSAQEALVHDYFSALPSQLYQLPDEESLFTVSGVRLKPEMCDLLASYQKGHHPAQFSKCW

[11] = biological target: Glycogen synthase kinase-3 beta (Homo sapiens, UniProt P49841); test: Selectivity interaction (KinomeScan (DiscoverX)) EUB0000618a GSK3B; conditions: at 10 µM
Chain of Glycogen synthase kinase-3 beta (P49841 whole entry, looked up): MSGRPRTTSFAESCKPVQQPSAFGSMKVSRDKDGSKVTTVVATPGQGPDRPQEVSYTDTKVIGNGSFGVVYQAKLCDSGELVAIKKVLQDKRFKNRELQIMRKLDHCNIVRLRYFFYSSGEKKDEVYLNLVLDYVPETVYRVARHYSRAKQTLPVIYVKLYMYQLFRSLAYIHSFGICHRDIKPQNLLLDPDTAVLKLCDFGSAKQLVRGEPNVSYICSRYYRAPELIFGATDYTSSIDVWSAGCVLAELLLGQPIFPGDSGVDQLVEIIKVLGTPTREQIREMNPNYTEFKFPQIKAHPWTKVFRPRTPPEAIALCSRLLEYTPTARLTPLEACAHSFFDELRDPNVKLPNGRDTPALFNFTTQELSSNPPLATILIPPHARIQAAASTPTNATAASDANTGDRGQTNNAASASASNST

[12] = biological target: Mitogen-activated protein kinase 7 (Homo sapiens) (UniProt Q13164); test: Selectivity interaction (KinomeScan (DiscoverX)) EUB0001619a MAPK7; conditions: at 1 µM
[13] = biological target: T3, Non-receptor tyrosine-protein kinase TNK1 (Homo sapiens) (UniProt Q13470); test: Selectivity interaction (KinomeScan (DiscoverX)) EUB0001619a TNK1; conditions: at 1 µM
T3 sequence (whole entry): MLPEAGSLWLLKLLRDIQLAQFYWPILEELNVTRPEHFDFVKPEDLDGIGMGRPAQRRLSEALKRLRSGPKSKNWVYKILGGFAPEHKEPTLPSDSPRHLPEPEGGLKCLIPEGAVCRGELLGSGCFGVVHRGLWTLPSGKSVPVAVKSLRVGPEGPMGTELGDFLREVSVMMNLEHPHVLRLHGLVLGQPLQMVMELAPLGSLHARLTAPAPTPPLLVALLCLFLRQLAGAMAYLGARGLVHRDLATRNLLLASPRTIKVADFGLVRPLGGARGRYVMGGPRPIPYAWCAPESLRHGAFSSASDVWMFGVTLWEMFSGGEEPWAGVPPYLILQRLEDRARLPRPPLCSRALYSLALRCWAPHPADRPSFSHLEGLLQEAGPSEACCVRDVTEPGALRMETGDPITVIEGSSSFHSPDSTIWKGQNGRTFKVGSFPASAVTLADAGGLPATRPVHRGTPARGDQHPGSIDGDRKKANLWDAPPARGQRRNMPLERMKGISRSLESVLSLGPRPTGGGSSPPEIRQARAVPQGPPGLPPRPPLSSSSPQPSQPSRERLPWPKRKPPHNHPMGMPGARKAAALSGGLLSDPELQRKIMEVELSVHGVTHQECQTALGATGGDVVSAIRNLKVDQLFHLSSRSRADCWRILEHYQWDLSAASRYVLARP

Chain of TGF-beta receptor type-2 (Homo sapiens) (P37173 whole entry): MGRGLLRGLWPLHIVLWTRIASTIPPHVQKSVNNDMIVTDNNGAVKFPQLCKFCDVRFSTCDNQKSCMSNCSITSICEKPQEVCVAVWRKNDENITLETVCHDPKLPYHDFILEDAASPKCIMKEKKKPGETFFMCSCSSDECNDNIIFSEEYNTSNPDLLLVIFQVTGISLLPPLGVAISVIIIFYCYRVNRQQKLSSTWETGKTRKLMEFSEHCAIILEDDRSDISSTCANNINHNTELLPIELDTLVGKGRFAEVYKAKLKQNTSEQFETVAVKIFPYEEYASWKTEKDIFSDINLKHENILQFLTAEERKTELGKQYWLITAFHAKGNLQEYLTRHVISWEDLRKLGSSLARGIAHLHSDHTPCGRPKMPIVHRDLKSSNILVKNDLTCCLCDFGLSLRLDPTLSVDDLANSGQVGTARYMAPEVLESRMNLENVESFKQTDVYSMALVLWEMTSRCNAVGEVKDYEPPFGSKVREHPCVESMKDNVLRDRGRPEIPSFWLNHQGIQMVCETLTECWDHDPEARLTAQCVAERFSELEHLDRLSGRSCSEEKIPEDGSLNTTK

- % of inhibition [1]: -26.6%
- % of inhibition [2]: -14%
SMILES: Cn1cc(-n2cnc3c(NCc4nc5cc(Cl)c(Cl)cc5[nH]4)nc(N4CCOCC4)nc32)cn1

- dTM [3]: < 2 K
SMILES: CN(C)CCCOc1ccc(-c2cc(NCCCn3cccn3)nc(S(C)(=O)=O)n2)cc1

- % of inhibition [4]: -3%
SMILES: CN1Cc2nccc(-c3cn(C)nc3-c3ccc(F)cc3)c2C1=O

- % of inhibition [5]: 1.19%
- % of inhibition [6]: 3.33%
SMILES: CC[C@@H]1[C@H](F)C(=O)N[C@@H]1COc1nccc2cc(C(N)=O)c(OC)cc12 [ZIMLOVISERTIB]

- % of control ([7]; at 1 µM): 96%
- % of control ([7]; at 5 µM): 100%
SMILES: C=CC(=O)Nc1cccc(C(=O)Nc2ccc(Nc3cc(-c4[nH]c(SC)nc4C)ccn3)cc2)c1

SMILES: CN(C)C/C=C/C(=O)Nc1ccc(C(=O)N2CCCC(Nc3ncc(Cl)c(-c4c[nH]c5ccccc45)n3)C2)cc1 (stereo not given)
- % of control (Misshapen-like kinase 1): 89%
- % of control [8]: 86%

SMILES: CCC(=O)N1CCN(c2ccc(-n3c(=O)ccc4cnc5ccc(-c6cnc7ccccc7c6)cc5c43)cc2C(F)(F)F)CC1
- % of control [9]: 68%

SMILES: Cc1cc([C@@H](C)Nc2ccccc2C(=O)O)c2nc(N3CCOCC3)cc(=O)n2c1 [AZD-6482]
- % of control [10]: 100%

SMILES: O[C@H]1CC[C@H](Nc2ncc3nc(Nc4c(F)cc(F)cc4F)n([C@H]4CCOC4)c3n2)CC1
- % of control [11]: 95%

SMILES: N#Cc1cccc(-c2c[nH]c3ncnc(N4CCOCC4)c23)c1
- % of control [12]: 100%
- % of control [13]: 32%
